In US20110183978A1, “Phenylpyri(mi)dinylazoles” (Bayer CropScience AG, priority 2009, published 2011):
Like-named read-outs stand apart in the source and are kept apart here.

What was measured:
Sphaerotheca fuliginea [1] = assay: Example D: in vivo test on Sphaerotheca fuliginea (powdery mildew on cucumber); conditions: Podosphaera fuliginea, 288 h, cucumber plants sprayed 24 hours before inoculation, scored after 12 days, read-out: % Wirkungsgrad
Procedure: In Vivo Test on Sphaerotheca Fuliginea (Powdery Mildew on Cucumber) An aqueous suspension of the active substance was prepared by homogenization of a mixture of acetone/Tween/dimethyl sulphoxide and subsequent dilution with water to the desired concentration. Cucumber plants (variety: Vert petit de Paris) are sown in cultivation dishes on a peat-pozzolanic earth substrate (50/50) at 20/23° C. and at the cotyledon stage Z10 sprayed with the aqueous suspension described above. As a control, plants are sprayed with an aqueous solution with no active substance. After 24 hours the plants are inoculated by spraying with an aqueous suspension of Sphaerotheca fuliginea spores (100,000 spores per ml). The spores are derived from a contaminated plant. The inoculated cucumber plants are incubated at ca. 20/25° C. at a relative atmospheric humidity of 60/70%. After 12 days they are scored in comparison with the control plants.

Peronospora parasitica = assay: Example A: in vivo test on Peronospora parasitica (downy mildew on white cabbage); conditions: Hyaloperonospora parasitica, 120 h, cabbage plants sprayed 24 hours before inoculation, scored after 5 days, read-out: % Wirkungsgrad
Procedure: In Vivo Test on Peronospora Parasitica (Downy Mildew on White Cabbage) An aqueous suspension of the active substance was prepared by homogenization of a mixture of acetone/Tween (dispersant)/dimethyl sulphoxide (DMSO) and subsequent dilution with water to the desired concentration. Cabbage plants (variety: Eminence) are sown in cultivation dishes on a peat-pozzolanic earth substrate (50/50) at 18-20° C. and sprayed at the cotyledon stage with the aqueous suspension described above. As a control, plants are sprayed with an aqueous solution with no active substance. After 24 hours, the plants are inoculated by spraying with an aqueous suspension of Peronospora parasitica spores (50,000 spores per ml). The spores are derived from infected plants. The inoculated cabbage plants are incubated for 5 days at ca. 20° C. in a moist atmosphere. After 5 days, they are scored in comparison with the control plants.

[2] = system: Mycosphaerella graminicola; assay: Example G: in vivo test on Mycosphaerella graminicola (wheat leaf blotch disease); conditions: Zymoseptoria tritici, wheat plants sprayed 24 hours before inoculation, scored after 21 to 28 days, read-out: % Wirkungsgrad
Procedure: In Vivo Test on Mycosphaerella Graminicola (Wheat Leaf Blotch Disease) An aqueous suspension of the active substance was prepared by homogenization of a mixture of acetone/Tween/dimethyl sulphoxide and subsequent dilution with water to the desired concentration. Wheat plants (variety: Scipion) are sown in cultivation dishes on a peat-pozzolanic earth substrate (50/50) at 12° C. and sprayed at the first-leaf stage (10 cm size) with the aqueous suspension described above. As a control, plants are sprayed with an aqueous solution with no active substance. After 24 hours the plants are inoculated by spraying with an aqueous suspension of Mycosphaerella graminicola spores (500,000 spores per ml). The spores are derived from a 7 day-old culture. […] After 21 to 28 days they are scored in comparison with the control plants.

Sphaerotheca fuliginea [3] = assay: Example L: in vivo test on Sphaerotheca fuliginea (powdery mildew on cucumber/protective); conditions: Podosphaera fuliginea, 168 h, cucumber, protective, assessment 7 days after inoculation, read-out: % Wirkungsgrad
In short: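 Young cucumber plants sprayed at stated dosage with compound in DMF/alkylaryl polyglycol ether emulsifier diluted in water; inoculated with S. fuliginea spores one day later. Kept in greenhouse at 70% relative humidity, 23° C; protective activity assessed 7 days after inoculation.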

Alternaria solani = assay: Example M: in vivo test on Alternaria solani (leaf blotch disease/tomato/protective); conditions: 168 h, tomato, protective, 500 ppm active substance, assessed 7 days after inoculation, read-out: % Wirkungsgrad (activity level)
In short: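 Alternaria solani infection on tomato scored 7 days post-inoculation. Before inoculation, young plants received a protective spray at the stated application dose; formulation was compound mixed with N,N-dimethylformamide and emulsifier, water-diluted.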

Fusarium proliferatum = assay: Example I: production of fumonisin FB1 by Fusarium proliferatum (microtitre plates); assay type: cell-based; conditions: 120 h
Botrytis cinerea = assay: Example P: in vivo test on Botrytis cinerea (gray mould on bean/protective); conditions: 48 h, bean, protective, 250 ppm active substance, assessed 2 days after inoculation, read-out: % Wirkungsgrad (activity level)
In short: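 Infection blotch size on leaves was scored 2 days after placing 2 Botrytis-colonised agar pieces per leaf. Inoculation followed drying of a protective spray applied to young plants at the stated dosage. Spray was prepared by diluting compound with solvent and alkylaryl polyglycol ether emulsifier in water.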

Fusarium graminearum [4] = assay: whole plant or invertebrate; assay type: in vivo; conditions: in Hordeum vulgare, 120 h, read-out: % Wirkungsgrad (activity level)
Venturia inaequalis = assay: Example O: in vivo test on Venturia inaequalis (apple scab/protective); conditions: 240 h, protective, assessment 10 days after inoculation, read-out: % Wirkungsgrad
In short: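 Young plants received a preventive spray of compound formulated as an emulsifier-containing aqueous dilution at the given application rate, then were inoculated with apple scab fungus. Disease was scored 10 days post-inoculation.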

Septoria tritici = assay: Example R: in vivo test on Septoria tritici (leaf blotch in wheat/protective); conditions: Zymoseptoria tritici, 504 h, wheat, protective, 1000 ppm active substance, assessed 21 days after inoculation, read-out: % Wirkungsgrad (activity level)
Procedure: Solvent: 49 parts by weight N,N-dimethylacetamide Emulsifier: 1 part by weight alkylaryl polyglycol ethers For the preparation of a suitable active substance preparation, 1 part by weight of active substance is mixed with the stated quantities of solvent and emulsifier and the concentrate is diluted to the desired concentration with water. For the testing for protective activity, young plants are sprayed with the active substance preparation at the stated application dosage. After drying of the spray coating, the plants are sprayed with a spore suspension of Septoria tritici. […] 21 days after the inoculation, the assessment takes place.

[5] = system: Fusarium nivale (var. majus); assay: whole plant or invertebrate; assay type: in vivo; conditions: Microdochium nivale, in Triticum aestivum, 120 h, read-out: % Wirkungsgrad (activity level)
Fusarium graminearum [6] = assay: microbe, parasite or virus in culture; assay type: cell-based
Plasmopara viticola = assay: Example N: in vivo test on Plasmopara viticola (downy mildew, vine/protective); conditions: 144 h, vine, protective, assessment 6 days after inoculation, read-out: % Wirkungsgrad
Procedure: Emulsifier: 1 part by weight alkylaryl polyglycol ethers For the preparation of a suitable active substance preparation, 1 part by weight of active substance is mixed with the stated quantities of solvent and emulsifier and the concentrate is diluted to the desired concentration with water. For the testing for protective activity, young plants are sprayed with the active substance preparation at the stated application dosage. […] The plants are then moistened and placed in an incubation cabin for 1 day. 6 days after the inoculation, the assessment takes place.

[7] = LogPA (logP of the stated pure compound or, in a mixture, of the main isomer, 1-substituted 3-aryl-1H-pyrazole)
[8] = Fusarium proliferatum growth, OD 620, 5 days, read-out: % Inhibition des Pilzwachstums bei 50 μM
[9] = Fusarium proliferatum, 5 days at 20° C., HPLC-MS/MS, read-out: % Inhibition der FB1 produktion bei 50 μM
[10] = 72 h, read-out: % Inhibition des Pilzwachstums bei 50 μM
[11] = 168 h, read-out: % Inhibition der DON/AcDON produktion bei 50 μM

| Compound | pest or weed control at 500 ppm (Sphaerotheca fuliginea [1]) | chromatographic logP (physchem; [7]) | pest or weed control at 500 ppm [2] | pest or weed control at 500 ppm (Sphaerotheca fuliginea [3]) | pest or weed control at 500 ppm (Alternaria solani) | pest or weed control at 250 ppm (Botrytis cinerea) | pest or weed control at 100 ppm (Venturia inaequalis) | also measured |
| --- | --- | --- | --- | --- | --- | --- | --- | --- |
| CC(C)(C)Cn1ncc(-c2ccncc2)c1-c1c(F)cccc1F [Compound 6] | 95% | 1.79 | 85% |  |  |  |  | pest or weed control at 500 ppm (Peronospora parasitica): 70% |
| Fc1cccc(F)c1-c1nn(CC(F)(F)F)cc1-c1ccncc1 [Compound 12] | 95% | 1.39 | 77% |  |  |  |  |  |
| Fc1cccc(F)c1-c1c(-c2ccncc2)cnn1C1CCC1 [Compound 15] | 87% | 1.49 | 97% | 95% | 95% |  |  | pest or weed control at 500 ppm (Peronospora parasitica): 75% |
| Fc1cccc(F)c1-c1nn(C2CCCC2)cc1-c1ccncc1 [Compound 16] |  | 1.79 | 97% |  |  |  |  |  |
| Fc1cccc(F)c1-c1nn(CC2CCCO2)cc1-c1ccncc1 (centres unmarked) [Compound 26] | 80% | 1.16 | 88% |  |  |  |  |  |
| Fc1cccc(F)c1-c1c(-c2ccncc2)cnn1CC1CCCO1 (centres unmarked) [Compound 27] | 73% | 1.21 | 97% |  |  |  |  |  |
| C#CCn1ccc2c(-c3cn(C(C)C)nc3-c3ccc(F)cc3)ccnc21 [Compound 47] |  | 3.63 | 77% |  |  |  |  | inhibition at 50 µM (Fusarium proliferatum; [8]): 0%; inhibition at 50 µM (Fusarium proliferatum; [9]): 98% |
| CNC(=O)c1cc(-c2cn(C(C)C)nc2-c2ccc(F)cc2)ccn1 [Compound 53] | 98% | 2.74 | 91% |  |  |  |  | inhibition at 50 µM (Fusarium proliferatum; [8]): 0%; inhibition at 50 µM (Fusarium proliferatum; [9]): 96% |
| CC(C)n1ncc(-c2ccnc(NC(=O)C(C)(C)C)c2)c1-c1ccc(F)cc1 [Compound 72] |  | 2.99 | 83% |  | 95% |  |  |  |
| CC(=O)n1ccc2c(-c3cn(C4CCCCO4)nc3-c3ccc(F)cc3)ccnc21 (centres unmarked) [Compound 81] | 77% | 3.85 | 97% |  | 95% |  |  | pest or weed control at 500 ppm (Peronospora parasitica): 89% |
| CCOC(=O)CCn1cc(-c2ccncc2)c(-c2ccc(F)cc2)n1 [Compound 132] | 82% | 1.29 | 86% |  |  |  |  |  |
| CCC(C)n1cc(-c2ccnc(NC(=O)C(C)C)c2)c(-c2ccc(F)cc2)n1 (centres unmarked) [Compound 157] |  | 2.82 |  | 100% | 94% | 78% | 94% | pest or weed control at 1000 ppm (Fusarium graminearum [4]): 100%; pest or weed control at 1000 ppm (Septoria tritici): 100%; pest or weed control at 1000 ppm [5]: 88%; inhibition at 50 µM (Fusarium graminearum [6]; [10]): 100%; inhibition at 50 µM (Fusarium graminearum [6]; [11]): 100% |
| CCC(C)n1cc(-c2ccnc(NC(=O)CC3CC3)c2)c(-c2ccc(F)cc2)n1 (centres unmarked) [Compound 159] |  | 3 |  | 97% | 94% | 98% | 97% | pest or weed control at 1000 ppm (Fusarium graminearum [4]): 100%; pest or weed control at 1000 ppm (Septoria tritici): 100%; pest or weed control at 1000 ppm [5]: 75%; inhibition at 50 µM (Fusarium graminearum [6]; [10]): 102%; inhibition at 50 µM (Fusarium graminearum [6]; [11]): 99% |
| CC(C)CC(=O)Nc1cc(-c2cn(CC(F)F)nc2-c2ccc(F)cc2)ccn1 [Compound 238] |  |  |  | 100% | 94% | 93% | 98% | pest or weed control at 100 ppm (Plasmopara viticola): 88%; pest or weed control at 1000 ppm (Fusarium graminearum [4]): 92%; pest or weed control at 1000 ppm [5]: 75%; chromatographic logP (physchem; LogPA): 2.63 |
| O=C(Nc1cc(-c2cn(CC(F)F)nc2-c2ccc(F)cc2)ccn1)C1CCC1 [Compound 240] |  |  |  | 96% | 88% | 99% | 96% | pest or weed control at 100 ppm (Plasmopara viticola): 90%; pest or weed control at 1000 ppm (Septoria tritici): 75%; pest or weed control at 1000 ppm [5]: 75%; chromatographic logP (physchem; LogPA): 2.42 |
| O=C(CC1CC1)Nc1cc(-c2cn(CC3CC3(Cl)Cl)nc2-c2ccc(F)cc2)ccn1 (centres unmarked) [Compound 251] |  |  |  | 96% | 94% | 95% | 84% | pest or weed control at 1000 ppm (Fusarium graminearum [4]): 83%; chromatographic logP (physchem; LogPA): 3.3 |
